From patent US7880002B2, “Substituted piperazinyl-pyrrolidine compounds useful as chemokine receptor antagonists” (Millennium Pharmaceuticals, Inc., priority 2004, dated 2011)

Each molecule was assayed against T1, CCR1 (Homo sapiens, UniProt P32246) (assay: CCR1 inhibition (THP-1 FLIPR assay / THP-1 whole cell radioligand binding assay; the patent does not say which gave the values)). Conditions: threshold list, less than 100 nm; compounds of Table 1; read-out: inhibitory activity.
T1 construct: a monocytic derived cell line that endogenously expresses CCR1; host or cells: THP-1 cells
T1 sequence (P32246 1-355): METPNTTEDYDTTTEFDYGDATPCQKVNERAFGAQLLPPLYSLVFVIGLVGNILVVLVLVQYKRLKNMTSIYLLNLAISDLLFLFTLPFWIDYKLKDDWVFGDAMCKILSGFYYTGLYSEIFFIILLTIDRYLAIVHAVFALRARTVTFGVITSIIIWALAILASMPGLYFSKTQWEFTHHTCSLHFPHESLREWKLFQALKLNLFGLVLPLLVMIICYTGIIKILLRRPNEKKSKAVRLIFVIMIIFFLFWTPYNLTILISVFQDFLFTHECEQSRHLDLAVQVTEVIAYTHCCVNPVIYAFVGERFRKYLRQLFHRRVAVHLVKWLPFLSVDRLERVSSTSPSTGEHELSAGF
Format: cell-based
Method: The primary screening assay is a FLIPR® (Fluorometric Imaging Plate Reader, available from Molecular Devices Corporation, Sunnyvale, Calif.) assay using THP-1 cells (ATCC, Catalog No. TIB 202), a monocytic derived cell line that endogenously expresses CCR1.
The cells were resuspended at 1×10^6 cells/ml in dye loading media (growth media (RPMI+10% FBS (Fetal Bovine serum)+5.5×10^−5M 2-mercaptoethanol)+10 mM HEPES (N-2-hydroxyethylpiperazine-N′-2-ethane-sulfonic acid)+2.5 mM probenecid+fluo-3 (1:250)). The cells were incubated for 1 hour at 37° C. and then washed in FLIPR wash buffer (100 mL 10× HBSS (Hanks Buffered Saline Solution) (w/Ca++/Mg++)+20 mL 1M HEPES+1 g BSA+10 mL 250 mM probenecid+water (to make 1 L)) and plated at 50,000 cells/well in black/clear 384 well plates. The plates were transferred to FLIPR where the ability of different concentrations of compounds to inhibit RANTES induced calcium flux was assessed. Inhibition of the CCR1 response was reflected by a decrease of the fluorescence signal relative to the positive controls (RANTES alone).
THP-1 Whole Cell Radioligand Binding Assay
The cells were washed with PBS (phosphate buffered saline) and resuspended in binding buffer (10 mM HEPES pH 7.2, 1× HBSS (w/Ca^2+, Mg^2+) 0.5% BSA, 0.02% Na-azide) at 4×10^6 cells/ml (for 200, 000 cells/well). Cells were incubated with 0.1 to 0.2 nM [^125I]-labeled MIP-1α with or without unlabeled competitor (MIP-1α) or various concentrations of compounds for 60 minutes at room temperature. The assay was terminated by vacuum filtration through glass fiber filters (GF/B, Packard) which were presoaked in 0.3% polyethyleneimine. The filters were washed with wash buffer (10 mM HEPES, pH 7.2, 1 mM CaCl2, 5 mM MgCl2 0.5M NaCl), dried and the amount of bound radioactivity was determined by scintillation counting.

IC50, < 100 nM:
CN(C)c1ccc2nc(C(F)(F)F)nc(N3C[C@H](O)[C@@H](N4CCN(C(=O)c5ccc(Cl)cc5)CC4)C3)c2c1 (stereo in doubt) [Example 187, 4-[4-(4-chlorobenzoyl)piperazin-1-yl]-1-[6-(dimethylamino)-2-(trifluoromethyl)quinazolin-4-yl]pyrrolidin-3-ol]
O=C(c1ccc(Cl)cc1)N1CCN([C@H]2CN(c3nc(C(F)(F)F)nc4ccc([N+](=O)[O-])cc34)C[C@@H]2O)CC1 (stereo in doubt) [Example 188, 4-[4-(4-chlorobenzoyl)piperazin-1-yl]-1-[6-nitro-2-(trifluoromethyl)quinazolin-4-yl]pyrrolidin-3-ol]
COC(=O)Nc1ccc2nc(C(F)(F)F)nc(N3C[C@H](O)[C@@H](N4CCN(C(=O)c5ccc(Cl)cc5)CC4)C3)c2c1 (stereo in doubt) [Example 190, methyl [4-{3-[4-(4-chlorobenzoyl)piperazin-1-yl]-4-hydroxypyrrolidin-1-yl}-2-(trifluoromethyl)quinazolin-6-yl]carbamate]
NC(=O)Nc1ccc2nc(C(F)(F)F)nc(N3C[C@H](O)[C@@H](N4CCN(C(=O)c5ccc(Cl)cc5)CC4)C3)c2c1 (stereo in doubt) [Example 194, N-[4-{3-[4-(4-chlorobenzoyl)piperazin-1-yl]-4-hydroxypyrrolidin-1-yl}-2-(trifluoromethyl)quinazolin-6-yl]urea]
CNC(=O)Nc1ccc2nc(C(F)(F)F)nc(N3C[C@H](O)[C@@H](N4CCN(C(=O)c5ccc(Cl)cc5)CC4)C3)c2c1 (stereo in doubt) [Example 196, N-[4-{3-[4-(4-chlorobenzoyl)piperazin-1-yl]-4-hydroxypyrrolidin-1-yl}-2-(trifluoromethyl)quinazolin-6-yl]-N′-methylurea]
CNC(=O)c1ccc2nc(C(F)(F)F)nc(N3C[C@@H](O)[C@H](N4CCN(C(=O)c5ccc(Cl)cc5)CC4)C3)c2c1 (stereo in doubt) [Example 198, 4-{3-[4-(4-chlorobenzoyl)piperazin-1-yl]-4-hydroxypyrrolidin-1-yl}-N-methyl-2-(trifluoromethyl)quinazoline-6-carboxamide]
CC(C)(O)c1ccc2nc(C(F)(F)F)nc(N3C[C@@H](O)[C@H](N4CCN(C(=O)c5ccc(Cl)cc5)CC4)C3)c2c1 (stereo in doubt) [Example 199, 4-[4-(4-chlorobenzoyl)piperazin-1-yl]-1-[6-(1-hydroxy-1-methylethyl)-2-(trifluoromethyl)quinazolin-4-yl]pyrrolidin-3-ol]
O=C(c1ccc(Cl)cc1)N1CCN([C@H]2CN(c3nc(C(F)(F)F)nc4cc(Cl)ccc34)C[C@@H]2O)CC1 (stereo in doubt) [Example 201, 4-[4-(4-chlorobenzoyl)piperazin-1-yl]-1-[7-chloro-2-(trifluoromethyl)quinazolin-4-yl]pyrrolidin-3-ol]
O=C(c1ccc(Cl)cc1)N1CCN([C@@H]2CN(c3nc(C(F)(F)F)nc4ccc(N5CCNC5=O)cc34)C[C@H]2O)CC1 (stereo in doubt) [Example 202, 1-[4-{3-[4-(4-chlorobenzoyl)piperazin-1-yl]-4-hydroxypyrrolidin-1-yl}-2-(trifluoromethyl)quinazolin-6-yl]imidazolidin-2-one]
N#Cc1ccc2nc(C(F)(F)F)nc(N3C[C@@H](O)[C@H](N4CCN(C(=O)c5ccc(Cl)cc5)CC4)C3)c2c1 (stereo in doubt) [Example 203, 4-{3-[4-(4-chlorobenzoyl)piperazin-1-yl]-4-hydroxypyrrolidin-1-yl}-2-(trifluoromethyl)quinazoline-6-carbonitrile]
O=C(c1ccc(Cl)cc1)N1CCN([C@@H]2CN(c3nc(C(F)(F)F)nc4ccc(-c5nn[nH]n5)cc34)C[C@H]2O)CC1 (stereo in doubt) [Example 204, 4-[4-(4-chlorobenzoyl)piperazin-1-yl]-1-[6-(2H-tetrazol-5-yl)-2-(trifluoromethyl)quinazolin-4-yl]pyrrolidin-3-ol]
O=C(c1ccc(Cl)cc1)N1CCN([C@@H]2CN(c3ccnc4cc(C(F)(F)F)ccc34)C[C@H]2O)CC1 [Example 12, 4-[4-(4-chlorobenzoyl)piperazin-1-yl]-1-[7-(trifluoromethyl)quinolin-4-yl]pyrrolidin-3-ol]
O=C(c1ccc(Cl)cc1)N1CCN([C@@H]2CN(c3nccc4ccccc34)C[C@H]2O)CC1 [Example 21, 4-[4-(4-chlorobenzoyl)piperazin-1-yl]-1-isoquinolin-1-ylpyrrolidin-3-ol]
O[C@@H]1CN(c2ccnc3cc(Cl)ccc23)C[C@H]1N1CCN(Cc2ccc(Cl)cc2)CC1 [Example 61, (3R,4R)-4-[4-(4-chlorobenzyl)piperazin-1-yl]-1-(7-chloroquinolin-4-yl)pyrrolidin-3-ol]
O=C(c1ccc(Cl)cc1)N1CCN([C@H]2CN(c3nccc(C(F)(F)F)n3)C[C@@H]2O)CC1 [Example 68, (3S,4S)-4-[4-(4-chlorobenzoyl)piperazin-1-yl]-1-[4-(trifluoromethyl)pyrimidin-2-yl]pyrrolidin-3-ol]
O=C(c1ccc(Cl)cc1)N1CCN([C@H]2CN(c3cccc(C(F)(F)F)n3)C[C@@H]2O)CC1 [Example 79]
O=C(c1ccc(Cl)cc1)N1CCN([C@@H]2CN(c3nc(-c4ccccc4)nc4ccccc34)C[C@H]2O)CC1 [Example 101, 4-[4-(4-chlorobenzoyl)piperazin-1-yl]-1-(2-phenylquinazolin-4-yl)pyrrolidin-3-ol]
O=C(c1ccc(Cl)cc1)N1CCN([C@H]2CN(c3ncnc4cc(Cl)ccc34)C[C@@H]2O)CC1 [Example 105, (3S,4S)-4-[4-(4-chlorobenzoyl)piperazin-1-yl]-1-(7-chloroquinazolin-4-yl)pyrrolidin-3-ol]
O[C@@H]1CN(c2nc(C(F)(F)F)cc(C(F)(F)F)n2)C[C@H]1N1CCN(Cc2ccc(Cl)cc2)CC1 [Example 110, 1-[4,6-bis(trifluoromethyl)pyrimidin-2-yl]-4-[4-(4-chlorobenzyl)piperazin-1-yl]pyrrolidin3-ol]
CC(C)(C)c1cc(C(F)(F)F)nc(N2CC(O)C(N3CCN(C(=O)c4ccc(Cl)cc4)CC3)C2)n1 (stereo not drawn) [Example 129, 1-[4-tert-butyl-6-(trifluoromethyl)pyrimidin-2-yl]-4-[4-(4-chlorobenzoyl)piperazin-1-yl]pyrrolidin-3-ol]
O[C@@H]1CN(c2ncnc3cc(Cl)ccc23)C[C@H]1N1CCN(Cc2ccc(Cl)cc2)CC1 [Example 141, (3R,4R)-4-[4-(4-chlorobenzyl)piperazin-1-yl]-1-(7-chloroquinazolin-4-yl)pyrrolidin-3-ol]
Cc1cc(C(F)(F)F)nc(N2C[C@H](O)[C@@H](N3CCN(C(=O)c4ccc(Cl)cc4)CC3)C2)n1 [Example 150, (3S,4S)-4-[4-(4-chlorobenzoyl)piperazin-1-yl]-1-[4-methyl-6-(trifluoromethyl)pyrimidin-2-yl]pyrrolidin-3-ol]
Cc1nc(C(F)(F)F)nc(N2C[C@H](O)[C@@H](N3CCN(C(=O)c4ccc(Cl)cc4)CC3)C2)c1C [Example 157, (3S,4S)-4-[4-(4-chlorobenzoyl)piperazin-1-yl]-1-[5,6-dimethyl-2-(trifluoromethyl)pyrimidin-4-yl]pyrrolidin-3-ol]
NC(=O)c1ccc2nc(C(F)(F)F)nc(N3C[C@@H](O)[C@H](N4CCN(C(=O)c5ccc(Cl)cc5)CC4)C3)c2c1 [Example 189, 4-{(3R,4R)-3-[4-(4-chlorobenzoyl)piperazin-1-yl]-4-hydroxypyrrolidin-1-yl}-2-(trifluoromethyl)quinazoline-6-carboxamide]
